Where two headings read alike, the source gives them in different places.
Tested on: PDE4
Experiment: Evaluation of PDE4 inhibitory activity, scintillation proximity assay
Assay type: biochemical
Conditions: scintillation proximity assay
Summary of the method: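 IC50 was derived from inhibition curves, referenced to an enzyme-free blank and a DMSO-only control. Compound, PDE4 preparation and tritiated cAMP reacted 120 min at RT in Tris-HCl buffer (pH 7.4) with MgCl2, EGTA and BSA; YSi-SPA beads with ZnSO4 bound product before scintillation counting.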

[1] = class symbols of Evaluation 1, read-out: PDE4 Inhibitory Activity (concentration for the inhibition rate of 50%, IC50), Evaluation 1
[2] = read-out: PDE4 Inhibitory Activity (Evaluation 1; concentration for the inhibition rate of 50%)

Compound | IC50 [1] | IC50 [2]
OC(O)(c1cc(-c2nccs2)c2oc(N3CC4CCC(C3)N4)nc2c1)C(F)(F)F [Example 157, 1-(2-(3,8-Diazabicyclo[3.2.1]octan-3-yl)-7-(thiazol-2-yl)benzo[d]oxazol-5-yl)-2,2,2-trifluoroethane-1,1-diol] | < 100 nM | –
COC1(c2cc(-c3nccs3)c3oc(N4CC5CC(C4)N5)nc3c2OC(F)(F)F)CC1 [Example 283, 2-(3,6-Diazabicyclo[3.1.1]heptan-3-yl)-5-(1-methoxycyclopropyl)-7-(thiazol-2-yl)-4-(trifluoromethoxy)benzo[d]oxazole] | – | < 100 nM
CC(C)(O)c1cc(-c2cscn2)c2oc(N3CC4CC(C3)N4)nc2c1OC(F)(F)F [Example 288, 2-(2-(3,6-Diazabicyclo[3.1.1]heptan-3-yl)-7-(thiazol-4-yl)-4-(trifluoromethoxy)benzo[d]oxazol-5-yl)propan-2-ol] | – | < 100 nM
OCc1ccc(-c2nccs2)c2oc(N3CC4CCC(C3)N4)nc12 [Example 132, (2-(3,8-Diazabicyclo[3.2.1]octan-3-yl)-7-(thiazol-2-yl)benzo[d]oxazol-4-yl)methanol] | < 100 nM | –
ON1C2CCC1CN(c1nc3c(OC(F)(F)F)c(Cl)cc(-c4nccs4)c3o1)C2 [Example 375, 3-(5-Chloro-7-(thiazol-2-yl)-4-(trifluoromethoxy)benzo[d]oxazol-2-yl)-3,8-diazabicyclo[3.2.1]octan-8-ol] | – | < 100 nM
CC(C)(O)C(F)(F)OC(c1ccc(-c2nccs2)c2oc(N3CC4CC(C3)N4)nc12)C(F)(F)F (centres unmarked) [Example 257, 1-(1-(2-(3,6-Diazabicyclo[3.1.1]heptan-3-yl)-7-(thiazol-2-yl)benzo[d]oxazol-4-yl)-2,2,2-trifluoroethoxy)-1,1-difluoro-2-methylpropan-2-ol] | – | < 100 nM
CC(C)c1cc(-c2nccs2)c2oc(N3CC4CCC(C3)N4)nc2c1 [Example 21, 2-(3,8-Diazabicyclo[3.2.1]octan-3-yl)-5-isopropyl-7-(thiazol-2-yl)benzo[d]oxazole] | < 100 nM | –
OC(c1cc(-c2nccs2)c2oc(N3CC4CCCC(C3)N4)nc2c1)C(F)(F)F (centres unmarked) [Example 136, 1-(2-(3,9-Diazabicyclo[3.3.1]nonan-3-yl)-7-(thiazol-2-yl)benzo[d]oxazol-5-yl)-2,2,2-trifluoroethan-1-ol] | < 100 nM | –
OC1(COC(c2ccc(-c3cscn3)c3oc(N4CC5CC(C4)N5)nc23)C(F)(F)F)CC1 (centres unmarked) [Example 286, 1-((1-(2-(3,6-Diazabicyclo[3.1.1]heptan-3-yl)-7-(thiazol-4-yl)benzo[d]oxazol-4-yl)-2,2,2-trifluoroethoxy)methyl)cyclopropan-1-ol] | – | < 100 nM
CC(O)(c1ccc(-c2nccs2)c2oc(N3CC4CC(C3)N4)nc12)C(F)F (centres unmarked) [Example 297, 2-(2-(3,6-Diazabicyclo[3.1.1]heptan-3-yl)-7-(thiazol-2-yl)benzo[d]oxazol-4-yl)-1,1-difluoropropan-2-ol] | – | < 100 nM
FC(F)(F)c1c(Cl)cc(-c2ccccn2)c2oc(N3CC4CC(C3)N4)nc12 [Example 13, 2-(3,6-Diazabicyclo[3.1.1]heptan-3-yl)-5-chloro-7-(pyridin-2-yl)-4-(trifluoromethyl)benzo[d]oxazole] | < 100 nM | –
Clc1ccc(-c2nccs2)c2oc(N3CC4CCCC(C3)N4)nc12 [Example 38, 2-(3,9-Diazabicyclo[3.3.1]nonan-3-yl)-4-chloro-7-(thiazol-2-yl)benzo[d]oxazole] | < 100 nM | –
CN(C)Cc1cc(-c2nccs2)c2oc(N3CC4CCC(C3)N4)nc2c1 [Example 169, 1-(2-(3,8-Diazabicyclo[3.2.1]octan-3-yl)-7-(thiazol-2-yl)benzo[d]oxazol-5-yl)-N,N-dimethylmethanamine] | < 100 nM | –
CC(O)c1ccc(-c2nccs2)c2oc(N3CC4CCC(C3)N4)nc12 (centres unmarked) [Example 124, 1-(2-(3,8-Diazabicyclo[3.2.1]octan-3-yl)-7-(thiazol-2-yl)benzo[d]oxazol-4-yl)ethan-1-ol] | < 100 nM | –
OCC(F)(F)Oc1ccc(-c2cscn2)c2oc(N3CC4CC(C3)N4)nc12 [Example 311, 2-((2-(3,6-Diazabicyclo[3.1.1]heptan-3-yl)-7-(thiazol-4-yl)benzo[d]oxazol-4-yl)oxy)-2,2-difluoroethan-1-ol] | – | < 100 nM
Oc1cc(-c2nccs2)c2oc(N3CC4CC(C3)N4)nc2c1 [Example 64, 2-(3,6-Diazabicyclo[3.1.1]heptan-3-yl)-7-(thiazol-2-yl)benzo[d]oxazol-5-ol] | < 100 nM | –
FC(F)(F)Oc1c(Cl)cc(-c2nccs2)c2oc(N3CC4CCC(C3)N4)nc12 [Example 1, 2-(3,8-Diazabicyclo[3.2.1]octan-3-yl)-5-chloro-7-(thiazol-2-yl)-4-(trifluoromethoxy)benzo[d]oxazole] | < 100 nM | –
NS(=O)(=O)c1cc(-c2nccs2)c2oc(N3CC4CCCC(C3)N4)nc2c1 [Example 59, 2-(3,9-Diazabicyclo[3.3.1]nonan-3-yl)-7-(thiazol-2-yl)benzo[d]oxazole-5-sulfonamide] | < 100 nM | –

Compound | IC50 [1] | IC50 [2]
CC(O)(c1ccc(-c2nccs2)c2oc(N3CC4CCC(C3)N4)nc12)C(F)F (centres unmarked) [Example 129, 2-(2-(3,8-Diazabicyclo[3.2.1]octan-3-yl)-7-(thiazol-2-yl)benzo[d]oxazol-4-yl)-1,1-difluoropropan-2-ol] | < 100 nM | –
CC(C)(O)C(F)(F)Oc1ccc(-c2cscn2)c2oc(N3CC4CCC(C3)N4)nc12 [Example 308, 1-((2-(3,8-Diazabicyclo[3.2.1]octan-3-yl)-7-(thiazol-4-yl)benzo[d]oxazol-4-yl)oxy)-1,1-difluoro-2-methylpropan-2-ol] | – | < 100 nM
COC(C)c1ccc(-c2nccs2)c2oc(N3CC4CCC(C3)N4)nc12 (centres unmarked) [Example 242, 2-(3,8-Diazabicyclo[3.2.1]octan-3-yl)-4-(1-methoxyethyl)-7-(thiazol-2-yl)benzo[d]oxazole] | – | < 100 nM
CN(CCO)C(=O)c1cc(-c2nccs2)c2oc(N3CC4CCC(C3)N4)nc2c1OC(F)(F)F [Example 193, 2-(3,8-Diazabicyclo[3.2.1]octan-3-yl)-N-(2-hydroxyethyl)-N-methyl-7-(thiazol-2-yl)-4-(trifluoromethoxy)benzo[d]oxazole-5-carboxamide] | – | < 100 nM
O=C(c1cc(-c2nccs2)c2oc(N3CC4CCC(C3)N4)nc2c1)N1CCC1 [Example 97, (2-(3,8-Diazabicyclo[3.2.1]octan-3-yl)-7-(thiazol-2-yl)benzo[d]oxazol-5-yl)(azetidin-1-yl)methanone] | < 100 nM | –
N#CCOC(c1cc(-c2nccs2)c2oc(N3CC4CCC(C3)N4)nc2c1)C(F)(F)F (centres unmarked) [Example 153, 2-(1-(2-(3,8-Diazabicyclo[3.2.1]octan-3-yl)-7-(thiazol-2-yl)benzo[d]oxazol-5-yl)-2,2,2-trifluoroethoxy)acetonitrile] | < 100 nM | –
COC(C)c1cc(-c2nccs2)c2oc(N3CC4CC(C3)N4)nc2c1C(F)(F)F (centres unmarked) [Example 185, 2-(3,6-Diazabicyclo[3.1.1]heptan-3-yl)-5-(1-methoxyethyl)-7-(thiazol-2-yl)-4-(trifluoromethyl)benzo[d]oxazole] | – | < 100 nM
CS(=O)(=O)c1cc(-c2nccs2)c2oc(N3CC4CCC(C3)N4)nc2c1 [Example 45, 2-(3,8-Diazabicyclo[3.2.1]octan-3-yl)-5-(methylsulfonyl)-7-(thiazol-2-yl)benzo[d]oxazole] | < 100 nM | –
CC(O)(c1ccc(-c2nccs2)c2oc(N3CC4CC(C3)N4)nc12)C(F)(F)F (centres unmarked) [Example 271, 2-(2-(3,6-Diazabicyclo[3.1.1]heptan-3-yl)-7-(thiazol-2-yl)benzo[d]oxazol-4-yl)-1,1,1-trifluoropropan-2-ol] | – | < 100 nM
O=C(c1ccc(-c2nccs2)c2oc(N3CC4CCC(C3)N4)nc12)N1CCCCC1 [Example 117, (2-(3,8-Diazabicyclo[3.2.1]octan-3-yl)-7-(thiazol-2-yl)benzo[d]oxazol-4-yl)(piperidin-1-yl)methanone] | < 100 nM | –
CC(C)(O)C(F)(F)Oc1ccc(-c2cscn2)c2oc(N3CC4CC(C3)N4)nc12 [Example 307, 1-((2-(3,6-Diazabicyclo[3.1.1]heptan-3-yl)-7-(thiazol-4-yl)benzo[d]oxazol-4-yl)oxy)-1,1-difluoro-2-methylpropan-2-ol] | – | < 100 nM
FC(F)(F)c1c(Cl)cc(-n2cccn2)c2oc(N3CC4CCC(C3)N4)nc12 [Example 15, 2-(3,8-Diazabicyclo[3.2.1]octan-3-yl)-5-chloro-7-(1H-pyrazol-1-yl)-4-(trifluoromethyl)benzo[d]oxazole] | < 100 nM | –
FC(F)(Oc1ccc(-c2nccs2)c2oc(N3CC4CC(C3)N4)nc12)c1nc2ccccc2o1 [Example 403, 4-(Benzo[d]oxazol-2-yldifluoromethoxy)-2-(3,6-diazabicyclo[3.1.1]heptan-3-yl)-7-(thiazol-2-yl)benzo[d]oxazole] | – | < 100 nM
OCCOC(c1ccc(-c2nccs2)c2oc(N3CC4CCC(C3)N4)nc12)C(F)(F)F (centres unmarked) [Example 225, 2-(1-(2-(3,8-Diazabicyclo[3.2.1]octan-3-yl)-7-(thiazol-2-yl)benzo[d]oxazol-4-yl)-2,2,2-trifluoroethoxy)ethan-1-ol] | – | < 100 nM
CS(=O)(=O)c1cc(-c2nccs2)c2oc(N3CC4CC(C3)N4)nc2c1 [Example 46, 2-(3,6-Diazabicyclo[3.1.1]heptan-3-yl)-5-(methylsulfonyl)-7-(thiazol-2-yl)benzo[d]oxazole] | < 100 nM | –
FC(F)(F)Oc1cc(-c2nccs2)c2oc(N3CC4CCCC(C3)N4)nc2c1 [Example 55, 2-(3,9-Diazabicyclo[3.3.1]nonan-3-yl)-7-(thiazol-2-yl)-5-(trifluoromethoxy)benzo[d]oxazole] | < 100 nM | –
FC(F)(F)Oc1c(Cl)cc(-c2ncco2)c2oc(N3CC4CCC(C3)N4)nc12 [Example 9, 2-(3,8-Diazabicyclo[3.2.1]octan-3-yl)-5-chloro-7-(oxazol-2-yl)-4-(trifluoromethoxy)benzo[d]oxazole] | < 100 nM | –

Source: patent US12239643B2, “Therapeutic agent for inflammatory diseases, autoimmune diseases, fibrotic diseases, and cancer diseases” (MEIJI SEIKA PHARMA CO., LTD., priority 2018, dated 2025)
